Experimental data from US12552783B2, “Modulators of proteolysis and associated methods of use” (Arvinas Operations, Inc., priority 2018, dated 2026).

Biological target: KRas (Homo sapiens, UniProt P01116, G12C)
Experiment: KRas degradation in SW1573 cells by Western blot, normalized to GAPDH (data of Table 14)
Type: cell-based
Conditions: SW1573 cells
Method: Cell Lines, Antibodies, and Reagents. NCI-H2030 (CRL-5914) and SW1573 (CRL-2170) cells were purchased from ATCC. Both cell lines are homozygous for the G12C mutation in KRas. NCI-H2030 cells were cultured in RPMI-1640 medium containing 1% penicillin-streptomycin and 10% fetal bovine serum (FBS). SW1573 cells were cultured in DMEM containing 1% penicillin-streptomycin and 10% FBS. The KRas detection antibody (Cat. No. LS-C175665) was purchased from LifeSpan Biosciences and was used at a dilution of 1:2000. GAPDH was detected using an antibody purchased from Cell Signaling Technology (Cat. No. 5174) and was diluted 1:3000. Secondary anti-mouse and anti-rabbit detection antibodies were purchased from Cell Signaling Technology (Cat. Nos. 7076 and 7074, respectively).
Compound Treatment and Western Blotting of the Data of Table 14. Either NCI-H2030 or SW1573 cells were plated in 12-well plates and allowed to adhere overnight at 37° C. in an incubator containing 5% CO2. The following day, the medium was replaced with the appropriate medium lacking FBS to induce starvation. Cells were returned to the incubator for an additional 24 hours following media exchange. […] Cells were treated with VHL-based compounds for 24 hours and all other compounds for 72 hours. Following treatment, cells were lysed in RIPA buffer (Thermo Fisher Cat. No. 89900) containing phosphatase (Thermo Fisher Cat. No. 1861277) and protease (Thermo Fisher Cat. No. 78429) inhibitor cocktails. Lysates were cleared at 13,000 rpm for 15 minutes and supernatants were assayed for total protein concentration using the Pierce BCA assay system (Thermo Fisher Cat. No. 23225). For each sample, 10 μg total protein was resolved on a 12% Bis-Tris gel and then transferred to a nitrocellulose membrane. After blocking in 3% BSA in TBST (Tris-buffered Saline with 0.1% Tween-20) for 1 hour at room temperature, membranes were probed with the primary antibody (LS Bio Cat. No. LS-C175665) overnight at 4° C. After incubation with the secondary antibody, the following day membranes were visualized using the SuperSignal™ West Femto substrate (Thermo Fisher Cat. No. 34095). The KRas signal in each lane was normalized to GAPDH and percent degradation was either estimated as less than 25% by visual inspection (C in Table 13) or quantitated relative to the DMSO control lane using BIO-RAD Image Lab 5.2.1, and all data was plotted using GraphPad PRISM 6.07.
DC50 is the half-maximal degradation concentration—i.e., the concentration at which 50% degradation is observed. DMax is the maximum degradation efficacy is achieved—i.e., the maximal degradation observed) degradation data.

Row | Percent Degradation at Indicated Concentration (μM) (0.03 μM) | Percent Degradation at Indicated Concentration (μM) (0.1 μM) | Percent Degradation at Indicated Concentration (μM) (0.3 μM) | Percent Degradation at Indicated Concentration (μM) (1 μM) | Percent Degradation at Indicated Concentration (μM) (3 μM) | Compound | DC50 | Dmax | Percent Degradation at Indicated Concentration (μM) (0.01 μM)
1 | C (Percent Degradation: C ≤ 35) | C (Percent Degradation: C ≤ 35) | C (Percent Degradation: C ≤ 35) | – | – | C=CC(=O)N1CCN(c2nc(O[C@H](C)CN3CCC(OCCOCCOCCOCCOCCOc4cc(C(C(=O)N5C[C@H](O)C[C@H]5C(=O)N[C@@H](C)c5ccc(-c6scnc6C)cc5)C(C)C)on4)CC3)nc3c(F)c(-c4cc(O)cc5ccccc45)c(Cl)cc23)CC1 (stereo in doubt) [compound 532, (2S,4R)-1-((2R)-2-(3-((14-((1-((2R)-2-((4-(4-acryloylpiperazin-1-yl)-6-chloro-8-fluoro-7-(3-hydroxynaphthalen-1-yl)quinazolin-2-yl)oxy)propyl)piperidin-4-yl)oxy)-3,6,9,12-tetraoxatetradecyl)oxy)isoxazol-5-yl)-3-methylbutanoyl)-4-hydroxy-N-((S)-1-(4-(4-methylthiazol-5-yl)phenyl)ethyl)pyrrolidine-2-carboxamide] | – | – | –
2 | – | – | C (Percent Degradation: C ≤ 35) | C (Percent Degradation: C ≤ 35) | C (Percent Degradation: C ≤ 35) | Cc1ncsc1-c1ccc([C@H](C)NC(=O)[C@@H]2C[C@@H](O)CN2C(=O)[C@@H](NC(=O)COCCOC2CCN(C[C@@H](C)Oc3nc(N4CCN(C(=O)C(O)O)CC4)c4cc(Cl)c(-c5cc(O)cc6ccccc56)c(F)c4n3)CC2)C(C)(C)C)cc1 [compound 244, (2S,4R)-1-((2S)-2-(2-(2-((1-((2R)-2-((6-chloro-4-(4-(2,2-dihydroxyacetyl)piperazin-1-yl)-8-fluoro-7-(3-hydroxynaphthalen-1-yl)quinazolin-2-yl)oxy)propyl)piperidin-4-yl)oxy)ethoxy)acetamido)-3,3-dimethylbutanoyl)-4-hydroxy-N-((S)-1-(4-(4-methylthiazol-5-yl)phenyl)ethyl)pyrrolidine-2-carboxamide] | – | – | –
3 | – | C (Percent Degradation: C ≤ 35) | C (Percent Degradation: C ≤ 35) | C (Percent Degradation: C ≤ 35) | – | Cc1ncsc1-c1ccc([C@H](C)NC(=O)[C@@H]2C[C@@H](O)CN2C(=O)[C@@H](NC(=O)COCCOCCOC2CCN(C[C@@H](C)Oc3nc(N4CCN(C(=O)C(O)O)CC4)c4cc(Cl)c(-c5cc(O)cc6ccccc56)c(F)c4n3)CC2)C(C)(C)C)cc1 [compound 245, (2S,4R)-1-((2S)-2-(2-(2-(2-((1-((2R)-2-((6-chloro-4-(4-(2,2-dihydroxyacetyl)piperazin-1-yl)-8-fluoro-7-(3-hydroxynaphthalen-1-yl)quinazolin-2-yl)oxy)propyl)piperidin-4-yl)oxy)ethoxy)ethoxy)acetamido)-3,3-dimethylbutanoyl)-4-hydroxy-N-((S)-1-(4-(4-methylthiazol-5-yl)phenyl)ethyl)pyrrolidine-2-carboxamide] | – | – | –
4 | – | – | C (Percent Degradation: C ≤ 35) | C (Percent Degradation: C ≤ 35) | C (Percent Degradation: C ≤ 35) | Cc1ncsc1-c1ccc([C@H](C)NC(=O)[C@@H]2C[C@@H](O)CN2C(=O)[C@@H](NC(=O)COCCOCCOCCOC2CCN(C[C@@H](C)Oc3nc(N4CCN(C(=O)C(O)O)CC4)c4cc(Cl)c(-c5cc(O)cc6ccccc56)c(F)c4n3)CC2)C(C)(C)C)cc1 [compound 246, (2S,4R)-1-((2S)-2-(tert-butyl)-14-((1-((2R)-2-((6-chloro-4-(4-(2,2-dihydroxyacetyl)piperazin-1-yl)-8-fluoro-7-(3-hydroxynaphthalen-1-yl)quinazolin-2-yl)oxy)propyl)piperidin-4-yl)oxy)-4-oxo-6,9,12-trioxa-3-azatetradecanoyl)-4-hydroxy-N-((S)-1-(4-(4-methylthiazol-5-yl)phenyl)ethyl)pyrrolidine-2-carboxamide] | – | – | –
5 | – | – | C (Percent Degradation: C ≤ 35) | C (Percent Degradation: C ≤ 35) | C (Percent Degradation: C ≤ 35) | Cc1ncsc1-c1ccc([C@H](C)NC(=O)[C@@H]2C[C@@H](O)CN2C(=O)[C@@H](NC(=O)COCCOCCOCCOCCOC2CCN(C[C@@H](C)Oc3nc(N4CCN(C(=O)C(O)O)CC4)c4cc(Cl)c(-c5cc(O)cc6ccccc56)c(F)c4n3)CC2)C(C)(C)C)cc1 [compound 247, (2S,4R)-1-((2S)-2-(tert-butyl)-17-((1-((2R)-2-((6-chloro-4-(4-(2,2-dihydroxyacetyl)piperazin-1-yl)-8-fluoro-7-(3-hydroxynaphthalen-1-yl)quinazolin-2-yl)oxy)propyl)piperidin-4-yl)oxy)-4-oxo-6,9,12,15-tetraoxa-3-azaheptadecanoyl)-4-hydroxy-N-((S)-1-(4-(4-methylthiazol-5-yl)phenyl)ethyl)pyrrolidine-2-carboxamide] | – | – | –
6 | – | – | C (Percent Degradation: C ≤ 35) | C (Percent Degradation: C ≤ 35) | C (Percent Degradation: C ≤ 35) | Cc1ncsc1-c1ccc([C@H](C)NC(=O)[C@@H]2C[C@@H](O)CN2C(=O)[C@@H](NC(=O)COCCOCCOCCOCCOCCOC2CCN(C[C@@H](C)Oc3nc(N4CCN(C(=O)C(O)O)CC4)c4cc(Cl)c(-c5cc(O)cc6ccccc56)c(F)c4n3)CC2)C(C)(C)C)cc1 [compound 248, (2S,4R)-1-((2S)-2-(tert-butyl)-20-((1-((2R)-2-((6-chloro-4-(4-(2,2-dihydroxyacetyl)piperazin-1-yl)-8-fluoro-7-(3-hydroxynaphthalen-1-yl)quinazolin-2-yl)oxy)propyl)piperidin-4-yl)oxy)-4-oxo-6,9,12,15,18-pentaoxa-3-azaicosanoyl)-4-hydroxy-N-((S)-1-(4-(4-methylthiazol-5-yl)phenyl)ethyl)pyrrolidine-2-carboxamide] | – | – | –
7 | C (Percent Degradation: C ≤ 35) | C (Percent Degradation: C ≤ 35) | C (Percent Degradation: C ≤ 35) | C (Percent Degradation: C ≤ 35) | – | C=CC(=O)N1CCN(c2nc(O[C@H](C)CN(C)CCOCCOCCOCCOCC(=O)N[C@H](C(=O)N3C[C@H](O)C[C@H]3C(=O)N[C@@H](C)c3ccc(-c4scnc4C)cc3)C(C)(C)C)nc3c(F)c(-c4cc(O)cc5ccccc45)c(Cl)cc23)CC1 [compound 397, (2S,4R)-1-((2S,20R)-20-((4-(4-acryloylpiperazin-1-yl)-6-chloro-8-fluoro-7-(3-hydroxynaphthalen-1-yl)quinazolin-2-yl)oxy)-2-(tert-butyl)-18-methyl-4-oxo-6,9,12,15-tetraoxa-3,18-diazahenicosanoyl)-4-hydroxy-N-((S)-1-(4-(4-methylthiazol-5-yl)phenyl)ethyl)pyrrolidine-2-carboxamide] | 100 to 1000 nM | ≤ 35% | C (Percent Degradation: C ≤ 35)

Row | Compound | Percent Degradation at Indicated Concentration (μM) (0.03 μM) | Percent Degradation at Indicated Concentration (μM) (0.1 μM) | Percent Degradation at Indicated Concentration (μM) (0.3 μM) | Percent Degradation at Indicated Concentration (μM) (1 μM) | Percent Degradation at Indicated Concentration (μM) (3 μM) | DC50 | Dmax | Percent Degradation at Indicated Concentration (μM) (0.01 μM)
8 | C=CC(=O)N1CCN(c2nc(O[C@H](C)CN3CCC(CN4CCN(CC(=O)N[C@H](C(=O)N5C[C@H](O)C[C@H]5C(=O)N[C@@H](C)c5ccc(-c6scnc6C)cc5)C(C)(C)C)CC4)CC3)nc3c(F)c(-c4cc(O)cc5ccccc45)c(Cl)cc23)CC1 [compound 403, (2S,4R)-1-((2S)-2-(2-(4-((1-((2R)-2-((4-(4-acryloylpiperazin-1-yl)-6-chloro-8-fluoro-7-(3-hydroxynaphthalen-1-yl)quinazolin-2-yl)oxy)propyl)piperidin-4-yl)methyl)piperazin-1-yl)acetamido)-3,3-dimethylbutanoyl)-4-hydroxy-N-((S)-1-(4-(4-methylthiazol-5-yl)phenyl)ethyl)pyrrolidine-2-carboxamide] | B (35 < B < 70) | B (35 < B < 70) | B (35 < B < 70) | C (Percent Degradation: C ≤ 35) | – | < 100 nM | 35 to 70% | C (Percent Degradation: C ≤ 35)
